Experiments:
[1] = test system: E. coli 10243 (sensitive, untransformed); experiment: Adenylate kinase release (cell lysis) assay with antibiotic and phage 10359, sensitive strain; assay type: cell-based, Escherichia coli
Description: For example, in one embodiment, a sample of bacterial cells is divided into first and second samples. The first sample of bacterial cells is mixed with a solution containing ADP and a detergent in the presence of magnesium ions. This extracts the adenylate kinase from all the cells present in the sample, thus allowing the ATP generating reaction to occur. The reaction is allowed to proceed for the required time e.g. 5 minutes, after which bioluminescence reagent is added and the resulting light measured in a luminometer. An assay performed in this way determines the total amount of adenylate kinase in a sample, be it extracellular or intracellular.
The second sample is subjected to a similar assay but in the absence of detergent so that only extracellular adenylate kinase is measured. […]

[2] = test system: E. coli 10243 carrying plasmid encoding ampicillin resistance (pUC18); experiment: Adenylate kinase release (cell lysis) assay with antibiotic and phage 10359, ampicillin-resistant strain; assay type: cell-based, Escherichia coli; settings: log phase, 10^5 phage 10359 at T0, 50 μg/ml ampicillin at T5
Description: A plasmid encoding ampicillin resistance (pUC18) was introduced into a pure culture of E. coli 10243 in order to induce resistance without altering phage host specificity.
Log phase cultures of both resistant and sensitive strains of E. coli 10243 were infected with 10^5 phage 10359 at T0 and 50 μg/ml ampicillin at T5.

Compound	Degree of phage mediated lysis in cultures containing the antibiotic ([1]; phage 10359 plus chloramphenicol 34 μg/ml versus phage only, 80 min)	Cell lysis with both bacteriophage and chloramphenicol compared with chloramphenicol alone ([1]; phage 10359 plus chloramphenicol 34 μg/ml, 80 min)	Cell lysis due to ampicillin (adenylate kinase release) ([1]; sensitive strain, log phase, 10^5 phage 10359 at T0, 50 μg/ml ampicillin at T5, time in min)	Effect of the antibiotic on the resistant strain (adenylate kinase release) [2]
O=C(N[C@H](CO)[C@H](O)c1ccc([N+](=O)[O-])cc1)C(Cl)Cl [chloramphenicol]	considerably less	Greater cell lysis		
CC1(C)S[C@@H]2[C@H](NC(=O)[C@H](N)c3ccccc3)C(=O)N2[C@H]1C(=O)O [ampicillin]			evident at T10 and significant at T20	unaffected by the antibiotic
